What is called MIC is the lowest concentration that inhibits growth of the organism.

The text below walks through data of patent US10781184B2, “Substituted benzazinones as antibacterial compounds” (GlaxoSmithKline Intellectual Property Development Limited, priority 2015, dated 2020).

The structures appear in SMILES notation. Converted amounts (≈) assume the structure as drawn. Where only a bound is given, the exact number is not on record here.

Assay in all cases: Minimum Inhibitory Concentration Assay (broth microdilution, CLSI)
Common to all, as to type: cell-based

In experiment [1] the test system is P. aeruginosa PA01. The note with it: Pseudomonas aeruginosa; strain PA01, broth microdilution; read-out: P. aeruginosa PA01 MIC. How it is done:
(§1) Methods for dilution Antimicrobial Susceptibility TestS for Bacteria that Grow Aerobically; Approved Standard-Ninth Edition; M7-A9, Vol. 32 No. 2, Clinical and Laboratory Standards Institute, Wayne, Pa.; January 2012.
(§2) Performance Standards for Antimicrobial Susceptibility Testing; Twenty-Second Informational Supplement; M100-S22 Vol. 32 No. 3; Clinical and Laboratory Standards Institute, Wayne, Pa., January 2012.
(§3) Broth microdilution was performed in accordance with the CLSI recommended procedures for aerobic bacteria [CLSI, 2012].
(§4) Comparator compound stock solutions were prepared as recommended by CLSI [CLSI, 2012]. The stock solutions of novel GSK compounds were prepared at 512 mcg/mL by dissolving the compounds in dimethyl sulfoxide (DMSO) and diluting 1:10 with sterile water. The 512 mcg/mL stock was further serially diluted in the recommended broth media for the organisms being tested. Final DMSO concentration in test wells was less than 1%.
(§5) Microtitre plates were prepared using the Microlab STAR™ (Hamilton Co., Reno, Nev.) to add media (50 μL) and the Microlab AT Plus system (Hamilton Co., Reno, Nev.) to serially dilute the compounds (final concentration range 0.125 to 128 mcg/mL) and to add inoculum. A positive growth control well containing medium and the test isolate was included on each microtitre plate. Ten microliters of the test medium from the positive growth control well was plated to determine the purity of each test isolate. A microtitre mirror reader (Cooke Instruments, Ltd., England) was used to assist in determining the microdilution MIC endpoints. The MIC was determined as the lowest concentration of compound that inhibited visible growth of the organism.
For orientation: In broth dilution the organism is exposed to a series of concentrations in liquid medium.

Experiment [2] concerns K. pneumoniae 1161486. The note with it: Klebsiella pneumoniae; strain 1161486, broth microdilution; read-out: K. pneumoniae 1161486 MIC. The method, then: as §1, §2, §3, §4, §5
Experiment [3] concerns E. coli 7623. Particulars: Escherichia coli; strain 7623, broth microdilution; read-out: E. coli 7623 MIC. How it is done:
as §1, §2, §3, §4, §5

For `C[C@@](CCn1cnc2cc(-c3ccc(CCO)cc3)c(F)cc2c1=O)(C(=O)NO)S(C)(=O)=O` [Example 28, (2R)-4-(6-fluoro-7-[4-(2-hydroxyethyl)phenyl]-4-oxo-3,4-dihydroquinazolin-3-yl)-N-hydroxy-2-methanesulfonyl-2-methylbutanamide], the results for the minimal inhibitory concentration (MIC) in experiment [1], in experiment [2] and in experiment [3] were 0.5 µg/mL (≈ 1.05 µM), 0.125 µg/mL (≈ 0.262 µM) and less than 0.03 µg/mL, respectively.

In the case of `Cc1c(-c2ccc(CN3CCOCC3)cc2)ccc2c(=O)n(CC[C@](C)(C(=O)NO)S(C)(=O)=O)cnc12` [Example 29, (2R)—N-hydroxy-2-methanesulfonyl-2-methyl-4-(8-methyl-7-{4-[(morpholin-4-yl)methyl]phenyl}-4-oxo-3,4-dihydroquinazolin-3-yl)butanamide], the values for the minimal inhibitory concentration (MIC) in experiment [1], in experiment [2] and in experiment [3] were 4 µg/mL (≈ 7.57 µM), 0.5 µg/mL (≈ 0.946 µM) and 0.5 µg/mL (≈ 0.946 µM), respectively.

In the case of `COc1ccc(-c2cc3ncn(CC[C@](C)(C(=O)NO)S(C)(=O)=O)c(=O)c3cc2F)cn1` [Example 30, (2R)-4-[6-fluoro-7-(6-methoxypyridin-3-yl)-4-oxo-3,4-dihydroquinazolin-3-yl]-N-hydroxy-2-methanesulfonyl-2-methylbutanamide], the MIC is 16 µg/mL (≈ 34.4 µM) in experiment [1], 1 µg/mL (≈ 2.15 µM) in experiment [2] and 0.25 µg/mL (≈ 0.538 µM) in experiment [3].

As for `C[C@@](CCn1cnc2cc(-c3ccccc3)c(F)cc2c1=O)(C(=O)NO)S(C)(=O)=O` [Example 31, (2R)-4-(6-fluoro-4-oxo-7-phenyl-3,4-dihydroquinazolin-3-yl)-N-hydroxy-2-methanesulfonyl-2-methylbutanamide], the minimum inhibitory concentration (MIC) stood at 2 µg/mL (≈ 4.61 µM) in experiment [1], 0.25 µg/mL (≈ 0.577 µM) in experiment [2] and 0.063 µg/mL (≈ 0.145 µM) in experiment [3].

For the compound `C[C@@](CCn1cnc2cc(-c3ccc4c(c3)COC4)c(F)cc2c1=O)(C(=O)NO)S(C)(=O)=O` [Example 32, (2R)-4-[7-(1,3-dihydro-2-benzofuran-5-yl)-6-fluoro-4-oxo-3,4-dihydroquinazolin-3-yl]-N-hydroxy-2-methanesulfonyl-2-methylbutanamide], the minimum inhibitory concentration (MIC) in experiment [1] stood at 4 µg/mL (≈ 8.41 µM); in experiment [2], 0.5 µg/mL (≈ 1.05 µM); in experiment [3] it was 0.125 µg/mL (≈ 0.263 µM).

In the case of `CN(C)c1ccc(-c2cc3ncn(CC[C@](C)(C(=O)NO)S(C)(=O)=O)c(=O)c3cc2F)cn1` [Example 33, (2R)-4-{7-[6-(dimethylamino)pyridin-3-yl]-6-fluoro-4-oxo-3,4-dihydroquinazolin-3-yl}-N-hydroxy-2-methanesulfonyl-2-methylbutanamide], the minimal inhibitory concentration (MIC) is 8 µg/mL (≈ 16.8 µM) in experiment [1], 0.5 µg/mL (≈ 1.05 µM) in experiment [2] and less than 0.03 µg/mL in experiment [3].

On to `CC(=O)OCCc1ccc(-c2cc3ncn(CC[C@](C)(C(=O)NO)S(C)(=O)=O)c(=O)c3cc2F)cc1` [Example 34, 2-(4-{6-fluoro-3-[(3R)-3-(hydroxycarbamoyl)-3-methanesulfonyl-3-methylpropyl]-4-oxo-3,4-dihydroquinazolin-7-yl}phenyl)ethyl acetate], for which the MIC in experiment [1] is 4 µg/mL; in experiment [2] it was 0.25 µg/mL; in experiment [3], less than 0.03 µg/mL.

As for `C[C@@](CCn1cnc2cc(-c3ccc(CN4CCOCC4)cc3)ccc2c1=O)(C(=O)NO)S(C)(=O)=O` [Example 35, (2R)—N-hydroxy-2-methanesulfonyl-2-methyl-4-(7-{4-[(morpholin-4-yl)methyl]phenyl}-4-oxo-3,4-dihydroquinazolin-3-yl)butanamide], the minimal inhibitory concentration (MIC) was 1 µg/mL (≈ 1.94 µM) in experiment [1], 0.5 µg/mL (≈ 0.972 µM) in experiment [2] and 0.125 µg/mL (≈ 0.243 µM) in experiment [3].

For the compound `COCCN(C)Cc1ccc(-c2ccc3c(=O)n(CC[C@](C)(C(=O)NO)S(C)(=O)=O)cnc3c2)c(F)c1` [Example 36, (2R)-4-[7-(2-fluoro-4-{[(2-methoxyethyl)(methyl)amino]methyl}phenyl)-4-oxo-3,4-dihydroquinazolin-3-yl]-N-hydroxy-2-methanesulfonyl-2-methylbutanamide], the minimum inhibitory concentration (MIC) was 1 µg/mL (≈ 1.87 µM) in experiment [1], 1 µg/mL (≈ 1.87 µM) in experiment [2] and 0.125 µg/mL (≈ 0.234 µM) in experiment [3].

For the compound `C[C@@](CCn1cnc2cc(-c3ccc(CN4CCOCC4)cc3F)ccc2c1=O)(C(=O)NO)S(C)(=O)=O` [Example 37, (2R)-4-(7-{2-fluoro-4-[(morpholin-4-yl)methyl]phenyl}-4-oxo-3,4-dihydroquinazolin-3-yl)-N-hydroxy-2-methanesulfonyl-2-methylbutanamide], the MIC in experiment [1] turned out to be 2 µg/mL (≈ 3.76 µM); in experiment [2], 0.5 µg/mL (≈ 0.939 µM); in experiment [3], 0.063 µg/mL (≈ 0.118 µM).

Turning to `COCCN(C)Cc1ccc(-c2ccc3c(=O)n(CC[C@](C)(C(=O)NO)S(C)(=O)=O)cnc3c2)c(F)c1F` [Example 38, (2R)-4-[7-(2,3-difluoro-4-{[(2-methoxyethyl)(methyl)amino]methyl}phenyl)-4-oxo-3,4-dihydroquinazolin-3-yl]-N-hydroxy-2-methanesulfonyl-2-methylbutanamide], the minimum inhibitory concentration (MIC) in experiment [1] came out at 4 µg/mL (≈ 7.24 µM); in experiment [2] it was 0.5 µg/mL (≈ 0.905 µM); in experiment [3] it was 0.125 µg/mL (≈ 0.226 µM).

With `CN(Cc1ccc(-c2ccc3c(=O)n(CC[C@](C)(C(=O)NO)S(C)(=O)=O)cnc3c2)cc1F)C1CC1` [Example 39, (2R)-4-[7-(4-{[cyclopropyl(methyl)amino]methyl}-3-fluorophenyl)-4-oxo-3,4-dihydroquinazolin-3-yl]-N-hydroxy-2-methanesulfonyl-2-methylbutanamide], the MIC is 4 µg/mL (≈ 7.74 µM) in experiment [1], 0.5 µg/mL (≈ 0.968 µM) in experiment [2] and less than 0.03 µg/mL in experiment [3].

Regarding `C[C@@](CCn1cnc2cc(-c3ccc(CN4CC(F)(F)C4)cc3F)ccc2c1=O)(C(=O)NO)S(C)(=O)=O` [Example 40, (2R)-4-(7-{4-[(3,3-difluoroazetidin-1-yl)methyl]-2-fluorophenyl}-4-oxo-3,4-dihydroquinazolin-3-yl)-N-hydroxy-2-methanesulfonyl-2-methylbutanamide], the MIC came out at 4 µg/mL (≈ 7.43 µM) in experiment [1], 0.5 µg/mL (≈ 0.928 µM) in experiment [2] and 0.5 µg/mL (≈ 0.928 µM) in experiment [3].

Regarding `C[C@@](CCn1cnc2cc(-c3ccc(CNC4CC4)cc3F)ccc2c1=O)(C(=O)NO)S(C)(=O)=O` [Example 41, (2R)-4-(7-{4-[(cyclopropylamino)methyl]-2-fluorophenyl}-4-oxo-3,4-dihydroquinazolin-3-yl)-N-hydroxy-2-methanesulfonyl-2-methylbutanamide], the MIC in experiment [1] amounted to 2 µg/mL (≈ 3.98 µM); in experiment [2] it was 2 µg/mL (≈ 3.98 µM); in experiment [3], 0.125 µg/mL (≈ 0.249 µM).

As to `C[C@@](CCn1cnc2cc(-c3ccc(CCN4CCOCC4)cc3F)ccc2c1=O)(C(=O)NO)S(C)(=O)=O` [Example 43, (2R)-4-(7-{2-fluoro-4-[2-(morpholin-4-yl)ethyl]phenyl}-4-oxo-3,4-dihydroquinazolin-3-yl)-N-hydroxy-2-methanesulfonyl-2-methylbutanamide], the figures for the MIC in experiment [1], in experiment [2] and in experiment [3] were 2 µg/mL (≈ 3.66 µM), 0.5 µg/mL (≈ 0.915 µM) and 0.25 µg/mL (≈ 0.457 µM), respectively.

As for `C[C@@](CCn1cnc2cc(-c3ccc(CCO)cc3)ccc2c1=O)(C(=O)NO)S(C)(=O)=O` [Example 44, (2R)—N-hydroxy-4-{7-[4-(2-hydroxyethyl)phenyl]-4-oxo-3,4-dihydroquinazolin-3-yl}-2-methanesulfonyl-2-methylbutanamide], the minimum inhibitory concentration (MIC) is 1 µg/mL (≈ 2.18 µM) in experiment [1], 1 µg/mL (≈ 2.18 µM) in experiment [2] and 0.125 µg/mL (≈ 0.272 µM) in experiment [3].

Regarding `C[C@@](CCn1cnc2cc(-c3ccc(CCO)cc3F)ccc2c1=O)(C(=O)NO)S(C)(=O)=O` [Example 45, (2R)-4-{7-[2-fluoro-4-(2-hydroxyethyl)phenyl]-4-oxo-3,4-dihydroquinazolin-3-yl}-N-hydroxy-2-methanesulfonyl-2-methylbutanamide], the MIC in experiment [1] was 1 µg/mL (≈ 2.09 µM); in experiment [2], 1 µg/mL (≈ 2.09 µM); in experiment [3] it was 0.063 µg/mL (≈ 0.132 µM).

Turning to `CCOc1ccc(-c2ccc3c(=O)n(CC[C@](C)(C(=O)NO)S(C)(=O)=O)cnc3c2)cc1` [Example 46, (2R)-4-[7-(4-ethoxyphenyl)-4-oxo-3,4-dihydroquinazolin-3-yl]-N-hydroxy-2-methanesulfonyl-2-methylbutanamide], the MIC was 1 µg/mL (≈ 2.18 µM) in experiment [1], 0.125 µg/mL (≈ 0.272 µM) in experiment [2] and less than 0.03 µg/mL in experiment [3].

As for `COCc1ccc(-c2ccc3c(=O)n(CC[C@](C)(C(=O)NO)S(C)(=O)=O)cnc3c2)cc1` [Example 47, (2R)—N-hydroxy-2-methanesulfonyl-4-{7-[4-(methoxymethyl)phenyl]-4-oxo-3,4-dihydroquinazolin-3-yl}-2-methylbutanamide], the results for the MIC in experiment [1], in experiment [2] and in experiment [3] were 0.5 µg/mL (≈ 1.09 µM), 0.125 µg/mL (≈ 0.272 µM) and 0.063 µg/mL (≈ 0.137 µM), respectively.

Turning to `COCCc1ccc(-c2ccc3c(=O)n(CC[C@](C)(C(=O)NO)S(C)(=O)=O)cnc3c2)c(F)c1` [Example 48, (2R)-4-{7-[2-fluoro-4-(2-methoxyethyl)phenyl]-4-oxo-3,4-dihydroquinazolin-3-yl}-N-hydroxy-2-methanesulfonyl-2-methylbutanamide], the MIC is 1 µg/mL (≈ 2.03 µM) in experiment [1], 0.125 µg/mL (≈ 0.254 µM) in experiment [2] and less than 0.03 µg/mL in experiment [3].
